This experiment concerns the target T1, recombinant autotaxin (Homo sapiens, UniProt Q13822).
T1 construct: made in house; host or cells: Hi5 insect cells (baculovirus)
The experiment can be described thus: Autotaxin assay (Amplex Red, LPC substrate). The format is biochemical. Conditions: 75 μM LPC, Amplex Red fluorescence, ten 1:3 dilutions starting at 30 μM. In a few lines:
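Baculovirus (Hi5)-expressed autotaxin (16 ng) was preincubated with compound 30 min at 22° C., then reacted with 75 μM final egg LPC for 90 min at 37° C.; choline released was coupled via choline oxidase/peroxidase to Amplex Red, fluorescence read kinetically (ex 485/em 612 nm). IC50 from 10-point 1:3 dilutions from 30 μM, duplicates, normalized to 500 μM C14 LPA as 0%.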

With `COc1ccccc1CNc1ncc2c(Nc3ccc(F)cc3C)nccc2n1` [Compound 41, N5-(4-Fluoro-2-methyl-phenyl)-N2-(2-methoxy-benzyl)-pyrido[4,3-d]pyrimidine-2,5-diamine], the IC50 – broadly, the point on the concentration scale where inhibition reaches its midpoint – was less than 30 µM.

As to `COc1ccccc1CNc1ncc2c(Nc3ccc4c(c3)OCCO4)nccc2n1` [Compound 39, N5-(2,3-Dihydro-benzo[1,4]dioxin-6-yl)-N2-(2-methoxy-benzyl)-pyrido[4,3-d]pyrimidine-2,5-diamine], the IC50 was less than 30 µM. In the case of `Fc1ccc(CNc2ncc3c(Nc4ccc5c(c4)OCO5)nccc3n2)cc1` [Compound 26, N5-Benzo[1,3]dioxol-5-yl-N2-(4-fluoro-benzyl)-pyrido[4,3-d]pyrimidine-2,5-diamine], the IC50 is less than 30 µM. On to `CC(C)CNc1nccc2nc(NCc3ccc(F)cc3)ncc12` [Compound 30, N2-(4-Fluoro-benzyl)-N5-isobutyl-pyrido[4,3-d]pyrimidine-2,5-diamine], for which the IC50 is less than 30 µM. As to `COc1ccc(Nc2nccc3nc(NCc4ccccc4)ncc23)cc1` [Compound 3, N2-Benzyl-N5-(4-methoxy-phenyl)-pyrido[4,3-d]pyrimidine-2,5-diamine], the IC50 was less than 30 µM. Then `CC(C)NC(=O)C1CCCN(c2nccc3nc(NCc4ccccc4Cl)ncc23)C1` (stereo not shown) [Compound 84, 1-[2-(2-Chloro-benzylamino)-pyrido[4,3-d]pyrimidin-5-yl]-piperidine-3-carboxylic acid isopropylamide], with less than 5 µM; and `COc1ccc(Nc2nccc3nc(NCc4ccccc4Cl)ncc23)cc1` [Compound 9, N2-(2-Chloro-benzyl)-N5-(4-methoxy-phenyl)-pyrido[4,3-d]pyrimidine-2,5-diamine], with less than 30 µM. Turning to `Clc1ccccc1CNc1ncc2c(NCc3ccccc3Cl)nccc2n1` [Compound 10, N2,N5-Bis-(2-chloro-benzyl)-pyrido[4,3-d]pyrimidine-2,5-diamine], the IC50 is less than 30 µM.

Consider `CC(=O)OCC(=O)N1CCN(c2nccc3nc(NCc4ccccc4Cl)ncc23)CC1` [Compound 126, Acetic acid 2-{4-[2-(2-chloro-benzylamino)-pyrido[4,3-d]pyrimidin-5-yl]-piperazin-1-yl}-2-oxo-ethyl ester], for which the IC50 is less than 5 µM. Then `Clc1ccccc1CNc1ncc2c(NCCc3ccncc3)nccc2n1` [Compound 148, N2-(2-Chloro-benzyl)-N5-(2-pyridin-4-yl-ethyl)-pyrido[4,3-d]pyrimidine-2,5-diamine], with less than 30 µM. `Cc1cc(F)ccc1Nc1nccc2nc(NCc3ccc(F)cc3)ncc12` [Compound 28, N2-(4-Fluoro-benzyl)-N5-(4-fluoro-2-methyl-phenyl)-pyrido[4,3-d]pyrimidine-2,5-diamine]: the IC50 was less than 30 µM.

In the case of `Cc1cc(F)ccc1Nc1nccc2nc(NCc3ccc(Cl)cc3)ncc12` [Compound 49, N2-(4-Chloro-benzyl)-N5-(4-fluoro-2-methyl-phenyl)-pyrido[4,3-d]pyrimidine-2,5-diamine], the IC50 was less than 30 µM. Then `Clc1ccccc1CNc1ncc2c(N3CCN(c4ncccn4)CC3)nccc2n1` [Compound 112, (2-Chloro-benzyl)-[5-(4-pyrimidin-2-yl-piperazin-1-yl)-pyrido[4,3-d]pyrimidin-2-yl]-amine], with less than 30 µM. `CCN1CCN(C(=O)C2CCCN(c3nccc4nc(NCc5ccccc5Cl)ncc34)C2)CC1` (stereo not shown) [Compound 89, {1-[2-(2-Chloro-benzylamino)-pyrido[4,3-d]pyrimidin-5-yl]-piperidin-3-yl}-(4-ethyl-piperazin-1-yl)-methanone]: the IC50 was less than 5 µM. As for `CN1CCN(C(=O)C2CCCN(c3nccc4nc(NCc5ccccc5Cl)ncc34)C2)CC1` (stereo not shown) [Compound 104, {1-[2-(2-Chloro-benzylamino)-pyrido[4,3-d]pyrimidin-5-yl]-piperidin-3-yl}-(4-methyl-piperazin-1-yl)-methanone], the IC50 was less than 30 µM. As for `COCCOCC(=O)N1CCN(c2nccc3nc(NCc4ccccc4Cl)ncc23)CC1` [Compound 136, 1-{4-[2-(2-Chloro-benzylamino)-pyrido[4,3-d]pyrimidin-5-yl]-piperazin-1-yl}-2-(2-methoxy-ethoxy)-ethanone], the concentration for half-maximal inhibition (IC50) is less than 30 µM.

For `Clc1ccccc1CNc1ncc2c(N3CCCC3)nccc2n1` [Compound 8, (2-Chloro-benzyl)-(5-pyrrolidin-1-yl-pyrido[4,3-d]pyrimidin-2-yl)-amine], the IC50 is less than 5 µM.

Take `O=C(NCc1ccco1)C1CCCN(c2nccc3nc(NCc4ccccc4Cl)ncc23)C1` (stereo not shown) [Compound 83, 1-[2-(2-Chloro-benzylamino)-pyrido[4,3-d]pyrimidin-5-yl]-piperidine-3-carboxylic acid (furan-2-ylmethyl)-amide]: the IC50 is less than 30 µM.

For the compound `CNC(=O)C1CCN(c2nccc3nc(NCc4ccccc4Cl)ncc23)CC1` [Compound 139, 1-[2-(2-Chloro-benzylamino)-pyrido[4,3-d]pyrimidin-5-yl]-piperidine-4-carboxylic acid methylamide], the IC50 is less than 30 µM. In the case of `Clc1ccccc1CNc1ncc2c(NCc3cccnc3)nccc2n1` [Compound 11, N2-(2-Chloro-benzyl)-N5-pyridin-3-ylmethyl-pyrido[4,3-d]pyrimidine-2,5-diamine], the IC50 was less than 30 µM. On to `O=C(NC1CC1)C1CCCN(c2nccc3nc(NCc4ccccc4Cl)ncc23)C1` (stereo not shown) [Compound 86, 1-[2-(2-Chloro-benzylamino)-pyrido[4,3-d]pyrimidin-5-yl]-piperidine-3-carboxylic acid cyclopropylamide], for which the IC50 was less than 5 µM. In the case of `CCOC(=O)CCNC(=O)C1CCCN(c2nccc3nc(NCc4ccccc4Cl)ncc23)C1` (stereo not shown) [Compound 92, 3-({1-[2-(2-Chloro-benzylamino)-pyrido[4,3-d]pyrimidin-5-yl]-piperidine-3-carbonyl}-amino)-propionic acid ethyl ester] it was less than 10 µM; in that of `COc1ccc(CNc2ncc3c(Nc4ccc5c(c4)OCO5)nccc3n2)cc1` [Compound 53, N5-Benzo[1,3]dioxol-5-yl-N2-(4-methoxy-benzyl)-pyrido[4,3-d]pyrimidine-2,5-diamine], less than 30 µM. Regarding `O=C(NCc1ccco1)C1CCN(c2nccc3nc(NCc4ccc(Cl)cc4)ncc23)CC1` [Compound 79, 1-[2-(4-Chloro-benzylamino)-pyrido[4,3-d]pyrimidin-5-yl]-piperidine-4-carboxylic acid (furan-2-ylmethyl)-amide], the IC50 is less than 30 µM.

`COc1ccc(CNc2ncc3c(Nc4ccc(OC)c(OC)c4)nccc3n2)cc1` [Compound 54, N5-(3,4-Dimethoxy-phenyl)-N2-(4-methoxy-benzyl)-pyrido[4,3-d]pyrimidine-2,5-diamine]: the IC50 was less than 30 µM. As to `Cc1ccccc1Nc1nccc2nc(NCc3ccc(F)cc3)ncc12` [Compound 22, N2-(4-Fluoro-benzyl)-N5-o-tolyl-pyrido[4,3-d]pyrimidine-2,5-diamine], the IC50 was less than 30 µM. Turning to `CCOCCCNC(=O)C1CCCN(c2nccc3nc(NCc4ccccc4Cl)ncc23)C1` (stereo not shown) [Compound 88, 1-[2-(2-Chloro-benzylamino)-pyrido[4,3-d]pyrimidin-5-yl]-piperidine-3-carboxylic acid (3-ethoxy-propyl)-amide], the IC50 was less than 10 µM.

On to `COc1ccccc1CNc1ncc2c(Nc3ccc(F)cc3F)nccc2n1` [Compound 37, N5-(2,4-Difluoro-phenyl)-N2-(2-methoxy-benzyl)-pyrido[4,3-d]pyrimidine-2,5-diamine], for which the IC50 was less than 30 µM.
